According to patent US20070219190A1, “Heterocyclic NF-kB Inhibitors” (4SC AG, priority 2006, published 2007):

These molecules were tested on A549-NF-κB-SEAP reporter cells (assay: NF-κB inflammation assay (PRINCESS NINA Instant Assay, SEAP reporter)). Conditions: stimulation with 2 ng/ml TNF-α; test concentration for the class not stated.
Format: cell-based
Source text: Inhibition of NF-κB-Induced Inflammation:
For the determination of anti-inflammatory activity of the compounds the PRINCESS® NINA Instant Assay from Cell Culture Service GmbH was used. This assay is based on recombinant A549-NF-κB-SEAP reporter cells preseeded in 96-well flat bottom plates. As the transfected reporter gene for SEAP (secreted embryonic alkaline phosphatase) is under transcriptional control of a NF-κB-responsive element, the expression of this reporter is activated upon stimulation with TNF-α. SEAP secretion into the culture supernatant can be detected by the chemiluminescent substrate CSPD®. Test compounds that inhibit the NF-κB activation show reduced SEAP activity and reduced luminescent readout.
Following 18 h of reactivation at 37° C., 5% CO2 and 90% relative humidity, the cells were incubated with 0.01 up to 100 μM of test compound for 4.5 h before stimulation with 2 ng/ml TNF-α. After stimulation with TNF-α for 22 h endogenous phosphatases were inactivated and CSPD® substrate was supplied for 40 min. SEAP activity then was quantified by measuring luminescence as relative light units (RLU) using a Tecan Ultra reader. Each data point was recorded in quadruplicates and EC50 values were calculated via fitting function and the Microsoft Excel Solver.

| Structure (SMILES) | Biological activity (NF-κB inflammation assay, inhibition) |
| --- | --- |
| N#Cc1ccc(CN2CCC(c3nc(C(=O)N4CCC(n5nnc6cc(C(F)(F)F)ccc65)CC4)cs3)CC2)cc1 [Cp. 1, 4-(4-{4-[4-(5-Trifluoromethyl-benzotriazol-1-yl)-piperidine-1-carbonyl]-thiazol-2-yl}-piperidin-1-yl-methyl)-benzonitrile] | ++ (“++” means 80-90%) |
| N#Cc1ccc(CN2CCC(c3nc(C(=O)N4CCN(c5nsc6ccccc56)CC4)cs3)CC2)cc1 [Cp. 2, 4-{4-[4-(4-Benzo[d]isothiazol-3-yl-piperazine-1-carbonyl)-thiazol-2-yl]-piperidin-1-ylmethyl}-benzonitrile] | ++ (“++” means 80-90%) |
| N#Cc1ccc(CN2CCC(c3nc(C(=O)N4CCC(n5cnc6ccccc65)CC4)cs3)CC2)cc1 [Cp. 3, 4-{4-[4-(4-Benzoimidazol-1-yl-piperidine-1-carbonyl)-thiazol-2-yl]-piperidin-1-ylmethyl}-benzonitrile] | ++ (“++” means 80-90%) |
| COc1nc(OC)nc(N2CCC(c3nc(C(=O)N4CCN(c5nsc6ccccc56)CC4)cs3)CC2)n1 [Cp. 5, (4-Benzo[d]isothiazol-3-yl-piperazin-1-yl)-{2-[1-(4,6-dimethoxy-[1,3,5]triazin-2-yl)-piperidin-4-yl]-thiazol-4-yl}-methanone] | ++ (“++” means 80-90%) |
| COc1nc(OC)nc(N2CCC(c3nc(C(=O)N4CCC(n5cnc6ccccc65)CC4)cs3)CC2)n1 [Cp. 6, (4-Benzoimidazol-1-yl-piperidin-1-yl)-{2-[1-(4,6-dimethoxy-[1,3,5]triazin-2-yl)-piperidin-4-yl]-thiazol-4-yl}-methanone] | ++ (“++” means 80-90%) |
| COc1cc(N2CCC(c3nc(C(=O)N4CCN(c5nsc6ccccc56)CC4)cs3)CC2)nc(OC)n1 [Cp. 7, (4-Benzo[d]isothiazol-3-yl-piperazin-1-yl)-{2-[1-(2,6-dimethoxy-pyrimidin-4-yl)-piperidin-4-yl]-thiazol-4-yl}-methanone] | ++ (“++” means 80-90%) |
| O=C(c1csc(C2CCN(c3ncnc4ccsc34)CC2)n1)N1CCN(c2nsc3ccccc23)CC1 [Cp. 8, (4-Benzo[d]isothiazol-3-yl-piperazin-1-yl)-[2-(1-thieno[3,2-d]pyrimidin-4-yl-piperidin-4-yl)-thiazol-4-yl]-methanone] | +++ (“+++” stands for 90-100% inhibition) |
